| melting point [°C] | Compound |
| --- | --- |
| 108 to 109 | C(=C\c1nc(COc2ccc(CCCn3cccc3)cc2)co1)/c1ccccc1 |
| 194 to 198 | COc1nc(NC(=O)NS(=O)(=O)c2ccccc2C)nc(N(C)C)n1 |
| 134 to 136 | CCOC1CCC(=O)N1S(=O)(=O)C=Cc1ccc(OC)cc1 (configuration not stated) |
| 174 to 176 | CC(=O)N1CCC(C(=NNc2ccccc2)c2ccc(Br)cc2F)CC1 |
| 156 to 157 | Cc1cc(O)ccc1-c1ccc(N)cc1 |
| 138 to 145 | O=S1(=O)CCc2nn(-c3ccc(Cl)cc3)c(Br)c2C1 |
| 120 to 122 | O=c1ccc2c(n1CCc1ccccc1)CCCC2NCCc1ccc(Cl)c(Cl)c1 (configuration not stated) |
| 123 to 124 | COCOc1ccc(OCc2ccc(OCc3nc(-c4ccccc4)oc3C)cc2)c(CC#N)c1 |
| 73 to 74 | COc1cc(OCC(F)(F)C(F)F)nc(Oc2cc(C(F)(F)F)nn2C)c1 |
| 53 to 54.5 | O=CN(Cc1ccccc1)Cc1ccccc1 |
| 116 to 118 | Cc1noc(NS(=O)(=O)c2ccccc2N)c1C |
| 255 to 257 | CC(=O)c1ccc2c(c1)C1(c3ccccc3-2)c2ccccc2-c2ccc(C(C)=O)cc21 |
| 167 | O=C1CCC(c2ccccc2)(c2ccccc2)[C@@H]2CN(C(=O)Cc3ccccc3N3CCOCC3)C[C@H]12 (racemic) |
| 85 to 88 | COc1ccc(C)cc1-c1ccc(S(=O)(=O)N2c3ccccc3CC2C(=O)NCCOc2ccc(CC(=O)O)cc2)cc1 (configuration not stated) |
| 67 | O=C1NC(=O)C(Cc2ccc(OCCN3C(=O)SC(c4ccccc4)C3=O)cc2)S1 (configuration not stated) |
| 90 to 91 | COC(=O)C(=O)Nc1cccc(OCCCBr)c1 |
| 124 to 125 | COc1ccc(-n2cc(CCCOc3c(CC(=O)O)cccc3OC)c(C(C)C)n2)nn1 |
| 155 to 158 | CCOC(=O)c1cnc2cc(OC)c(OC)cc2c1Nc1cccc(Br)c1 |
| 115 | COC(=O)CCNc1cc(Oc2ccc(Cl)cc2Cl)ccc1[N+](=O)[O-] |
| 144 to 145 | O=[N+]([O-])c1ccc(CP2(=O)OCCO2)cc1 |
| 228 to 230 | COC(=O)c1ccc2c(c1)-c1c(c(C(=O)C(C#N)C(=O)Nc3ccccc3)nn1-c1ccccc1)CS2 (configuration not stated) |
| 234 | NS(=O)(=O)c1cccc(-c2cc(-c3nc(-c4ccc(F)c(F)c4)cc(C(F)(F)F)n3)ccn2)c1 |
| 245 to 247 | NCc1ccccc1C1CCN(c2cc3c(cc2F)c(=O)c(C(=O)O)cn3C2CC2)C1 (configuration not stated) |

| melting point [°C] | Compound |
| --- | --- |
| 152 to 154 | CN(C)S(=O)(=O)c1cc(-c2csc(=Nc3ccccc3Cl)n2C)ccc1Cl |
| 114 to 116 | COc1ccc(Cc2ccc(NC3=NCCN3)cc2)cc1 |
| 194 to 195 | C=CCNCCC(=O)O |
| 62 to 66 | O=C(c1ccc(-c2ccc(=O)[nH]n2)cc1)N1CCC[C@H]1CN1CCCC1 |
| 152 to 154 | CC(C)(C)OC(=O)NCC(NC(=O)OC(C)(C)C)C(=O)NCCNC(=O)OCc1ccccc1 (configuration not stated) |
| 82 to 83 | CC(=O)c1cccc(Oc2cccc(Cl)n2)c1 |
| 63 to 65 | CC(C)(C)OC(=O)N1COC(=O)[C@@H]1CSCc1ccccc1 |
| 65 to 67 | COC(=O)C(C(=O)OC)[C@H]1C=Cc2ccccc2[C@H]1O (relative stereo) |
| 152 to 154 | CC(=O)Nc1c(C(=O)c2cccc(Cl)c2)[nH]c2cc(Cl)ccc12 |
| 230 to 232 | O=C1c2ccccc2C(=O)N1Cc1cn2ccccc2n1 |
| 185 to 187 | Cn1cc(C2=C(c3cn(CCCO)c4ccccc34)C(=O)NC2=O)c2ccccc21 |
| 210 to 211 | CCn1cc(C(=O)O)c(=O)c2cc(F)c(N3CCC(N(C)C)CC3)c(F)c21 |
| 185 to 186 | CC(C)(C)N1C(=O)c2ccc(C(=O)Cl)cc2S1(=O)=O |
| 110 to 115 | COC(=O)[C@H](CCC(=O)NCCc1ccc(O)c(OCc2ccccc2)c1)NC(=O)OCc1ccccc1 |
| 117 to 119 | CCc1nc(/C=C/c2cn(-c3ccccc3)nc2OCc2ccc(OCc3nc(-c4ccc(CC(=O)O)cc4)oc3C)c(OC)c2)co1 |
| 168 to 170 | CN(C)CC1Cn2cc(C(=O)NCc3ccc(Cl)cc3)c(=O)c3cc(CN4CCOCC4)cc(c32)O1 (configuration not stated) |
| 212 to 216 | NS(=O)(=O)c1ccc(CCNC(=O)CCn2cnc3c(=O)[nH]cnc32)cc1 |
| 101 to 102 | O=[N+]([O-])c1cccc(-n2ccnc2)c1 |
| 115 | COc1ccccc1N1CCN(CCc2ccc(OC(=O)C(C)(C)C)c3ncccc23)CC1 |
| 110 to 111 | COC(=O)C(=O)c1ccc(S(=O)(=O)CCOc2ccc3ccccc3c2)cc1 |
| > 250 | O=c1ccc(S(=O)(=O)c2cc3cc(Cl)ccc3[nH]2)n[nH]1 |
| 58 to 62 | Cn1nnnc1SCC(=O)NC/C=C\COc1cc(CN2CCCCC2)ccn1 |
| 149 to 151 | CCCCOc1ccc(-c2nc3n(c2-c2ccc(OCCCC)cc2)CCS3)cc1 |

| melting point [°C] | Compound |
| --- | --- |
| 350 to 352 | O=C1CC(c2cccc3c2OCO3)=Nc2ccc(N3CCOCC3)cc21 |
| 157 to 159 | COc1ccc(S(=O)(=O)C(CC(=O)NO)c2ccccc2)cc1 (configuration not stated) |
| 84 | COc1ccc(-c2cc(F)cc3c2NC(CN)CO3)c(Cl)c1 (configuration not stated) |
| 129 to 132 | O=C(O)C1=Cc2cc(SC(F)(F)F)ccc2SC1C(F)(F)F (configuration not stated) |
| 247 to 249 | CCCCc1nc2cccc(C(=O)NC(C)C)c2n1Cc1ccc(-c2ccccc2-c2nnn[nH]2)cc1 |
| 144 to 146 | CCc1cc(C(=O)C(c2ccc(O)cc2)c2ccc(O)cc2)cc(C(C)(c2ccc(O)cc2)c2ccc(O)cc2)c1 |
| 109 to 110 | OC1(CCc2ccccc2)CCC2(CC1)OCCO2 |
| 144 | Cc1c(O)ccc(C(=O)c2cccs2)c1C |
| 142 to 143 | COc1ccc(C(=O)c2ccc(OCc3nc(-c4ccccc4)oc3C)cc2)c(OCCC(=O)O)c1 |
| 142 to 143 | CCOC(=O)Nc1cc(N(C(=O)OCC)S(=O)(=O)CC)c(Br)cc1F |
| 170 to 173 | CSc1nc2cc(C(F)(F)F)ccc2n1N |
| 138 to 140 | Cc1cccc(S(=O)(=O)Nc2onc(C)c2Br)c1 |
| 107 to 109 | O=[N+]([O-])C(=Cc1ccc(F)cc1)c1ccc(F)cc1 |
| 166 | CCCc1nc(SC2CCC(CC(=O)O)CC2)c(C(=O)O)n1Cc1cc2c(cc1Cl)OCO2 (configuration not stated) |
| 64 to 66 | CCCCCCC1(CCCCCC)c2cc(Br)ccc2-c2ccc(Br)cc21 |
| 341 to 343 | NC(=O)c1nc(-c2cccc(O)c2)nc2c1[nH]c(=O)n2C1CCc2ccccc21 (configuration not stated) |
| 247 to 252 | COc1cc(Nc2nc3cccc(-c4ccc(S(N)(=O)=O)cc4)c3o2)cc(OC)c1OC |
| 207 | O=CN(O)C1(CS(=O)(=O)c2ccc(Oc3ccc(OC(F)(F)F)cc3)cc2)CCC(C(=O)O)CC1 (configuration not stated) |
| 184 to 185 | O=C(Nc1cccc(C(F)(F)F)c1)Nc1ccc(OCc2ccccc2)cc1O |
| 161 to 167 | COC(=O)C1(OC)CC(O)C(NC(C)=O)C(C(O)C(O)CO)O1 (configuration not stated) |
| 106 to 108 | CCN(CC)CCOc1ccc(Nc2ncc3c(n2)N(c2ccccc2)C(=O)N(c2ccc(Cl)cc2Cl)C3)cc1 |
| 234 to 235 | CCOc1cccc(C(c2ccccc2Cl)n2nc(C(=O)O)c3c2-c2ccc(OCc4cncnc4)cc2CC3)c1 (configuration not stated) |
| 183 to 184 | O=C(O)C1=COc2ccccc2O1 |

| melting point [°C] | Compound |
| --- | --- |
| 149 to 150 | OC(COc1ccc(-n2cncn2)cc1)CN1CCN(c2ccc(F)cc2)CC1 (configuration not stated) |
| 134 to 135 | Cc1nc(-c2ccc(S(C)(=O)=O)cc2)c(-c2ccc(F)cc2)s1 |
| 77 to 78 | N#CCCCCCCCCn1nnc(-c2ccccc2)c1-c1ccccc1 |
| 217 | CC1SC(=O)NN=C1c1ccc2c(c1)C(=NNC1CCCCC1)C(=O)N2 (configuration not stated) |
| 225 to 226 | Cc1cc(-c2nc3cccnn3c2-c2ccnc(NC(=O)c3ccc(Cl)nc3)c2)ccc1F |
| 76 to 78 | Cc1cc(C2CC(C)(C)CC(C)(C)C2(O)C#C[Si](C)(C)C)ccc1F (configuration not stated) |
| 47.5 to 48 | CCCCCCCCCCCCCCCCNC(=O)OCC(CO)OC (configuration not stated) |
| 208 to 209 | CC(=O)OCC1CC(n2c(=S)[nH]c3cc(Cl)c(Cl)cc32)C(OC(C)=O)C1OC(C)=O (configuration not stated) |
| 64 to 66 | CCOC(=O)Cn1c(-c2ccccc2Cl)nc2cccnc21 |
| 74 to 75 | CCCCCCCCCCCCCCOC(=O)c1cc(N)cc(C(=O)OCCCCCCCCCCCCCC)c1 |
| 230 to 233 | O=c1cc(-c2ccccc2)n(-c2ccccc2Cl)c(-c2ccccc2)c1Cl |
| 181 | COC(=O)C(C)(N)Cc1c[nH]c2ccc(Br)cc12 (racemic) |
| 160 | [N-]=[N+]=NC(=O)c1cn(C2CCN(Cc3ccccc3)C2)nn1 (configuration not stated) |
| 149 to 151 | O=c1nc(-c2ccccc2)c2cc(Cl)sc2n1CC1CC1 |
| 153 | CN(C)C=C(C(=O)C(=O)c1ccccc1C(=O)O)c1ccccc1 |
| 131 to 134 | COc1ccc(C=Cc2ccc(OC)c(OC)c2)cc1 |
| 218 to 220 | CC(=O)N1CCc2nc(N)nc(-c3ccc(Cl)cc3)c2C1 |
| 140 to 142 | O=c1c2cc(Cl)ccc2ccc2ncccc12 |
| > 300 | O=c1[nH]c(-c2ccccc2)nc(-c2ccncc2)c1Br |
| 58 to 59 | CCCCCCCCCCCCCCOc1ccc(CNc2ccccc2)cc1 |
| 120 to 125 | CCOC(=O)C1=Cc2cccc(C(N)=O)c2OCC1 |

| Compound | melting point [°C] |
| --- | --- |
| Fc1ccc2[nH]cc(CC3CCNCC3)c2c1 | 155 to 157 |
| CN1CCN(c2cc3c(Cl)cccc3c(=O)[nH]2)CC1 | 230 to 231 |
| CC1(C)COC(=O)N1Br | 118 to 120 |
| O=C(O)c1ccc2[nH]c(=O)n(CCCCN3CC=C(c4ccccc4)CC3)c(=O)c2c1 | 237 |
| CN(C)C(=O)Cc1ccc(CNC(=O)[C@@H](CCCNC(N)=N[N+](=O)[O-])NC(=O)C(c2ccccc2)c2ccccc2)cc1 | 198 to 200 |
| NC1(c2cccc(Br)c2)CC1 | 135 to 137 |
| CCOC(=O)C(NC(C)=O)(C(=O)OCC)C1=Nc2ccc(Br)cc2C(c2ccccn2)=NC1 | 178 to 180 |
